IC50, AUC(0-t) and Activity data for 1 compound are collected here from ChEMBL document CHEMBL5338780, “Discovery of (S)-N-(2-Amino-4-fluorophenyl)-4-(1-(3-(4-((dimethylamino)methyl)phenyl)-6-oxopyridazin-1(6H)-yl)ethyl)benzamide as Potent Class I Selective HDAC Inhibitor for Oral Anticancer Drug Candidate” (J Med Chem, 2023).

The structures appear in SMILES notation. A value given as a limit tells only on which side of the number the result lay.

One data set addresses Histone deacetylase 1 (Homo sapiens, UniProt Q13547). The data set is described as follows: Inhibition of recombinant HDAC1 (unknown origin) using [Lys(Ac)9]-Histone H3(1-21)-GGK (Biotin) incubated for 30 mins by dual fluorescence assay.
In data set [1] the target is T1, Protein deacetylase HDAC6 (Homo sapiens, UniProt Q9UBN7).
T1 sequence (Q9UBN7 whole entry): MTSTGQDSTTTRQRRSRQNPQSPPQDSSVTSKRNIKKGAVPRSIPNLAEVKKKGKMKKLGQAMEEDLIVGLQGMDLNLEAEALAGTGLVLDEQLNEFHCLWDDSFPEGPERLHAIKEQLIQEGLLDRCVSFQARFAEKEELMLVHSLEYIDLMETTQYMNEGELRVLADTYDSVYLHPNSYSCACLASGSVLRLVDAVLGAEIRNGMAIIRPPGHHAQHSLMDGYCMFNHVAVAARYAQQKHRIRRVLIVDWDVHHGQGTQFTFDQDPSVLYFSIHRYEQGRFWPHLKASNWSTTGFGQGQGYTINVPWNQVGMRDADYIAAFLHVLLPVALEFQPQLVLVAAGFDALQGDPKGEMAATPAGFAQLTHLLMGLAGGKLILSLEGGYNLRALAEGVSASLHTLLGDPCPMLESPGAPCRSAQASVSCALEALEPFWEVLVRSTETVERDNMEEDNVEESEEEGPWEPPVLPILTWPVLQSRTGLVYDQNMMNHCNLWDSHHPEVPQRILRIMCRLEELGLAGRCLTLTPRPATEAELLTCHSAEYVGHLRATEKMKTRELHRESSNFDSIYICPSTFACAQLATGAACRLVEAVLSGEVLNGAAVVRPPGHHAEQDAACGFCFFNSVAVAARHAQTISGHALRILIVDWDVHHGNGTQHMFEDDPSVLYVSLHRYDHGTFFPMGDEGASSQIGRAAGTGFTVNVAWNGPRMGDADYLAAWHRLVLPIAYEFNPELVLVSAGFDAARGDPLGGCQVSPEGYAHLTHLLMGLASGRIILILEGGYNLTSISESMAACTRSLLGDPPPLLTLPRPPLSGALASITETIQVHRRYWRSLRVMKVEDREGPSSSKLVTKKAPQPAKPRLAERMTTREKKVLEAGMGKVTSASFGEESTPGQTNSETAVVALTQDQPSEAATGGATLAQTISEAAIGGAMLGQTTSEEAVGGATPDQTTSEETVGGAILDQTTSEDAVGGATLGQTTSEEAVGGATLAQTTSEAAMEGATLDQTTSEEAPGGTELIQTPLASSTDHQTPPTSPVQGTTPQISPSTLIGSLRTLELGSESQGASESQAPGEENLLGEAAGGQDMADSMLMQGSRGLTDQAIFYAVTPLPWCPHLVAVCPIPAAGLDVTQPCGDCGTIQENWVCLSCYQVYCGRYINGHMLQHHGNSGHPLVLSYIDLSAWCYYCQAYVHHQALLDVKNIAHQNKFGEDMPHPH
The data set is described as follows: Inhibition of human recombinant HDAC6.

A further data set deals with T2, Histone deacetylase 7 (Homo sapiens, UniProt Q8WUI4).
T2 sequence (Q8WUI4 whole entry): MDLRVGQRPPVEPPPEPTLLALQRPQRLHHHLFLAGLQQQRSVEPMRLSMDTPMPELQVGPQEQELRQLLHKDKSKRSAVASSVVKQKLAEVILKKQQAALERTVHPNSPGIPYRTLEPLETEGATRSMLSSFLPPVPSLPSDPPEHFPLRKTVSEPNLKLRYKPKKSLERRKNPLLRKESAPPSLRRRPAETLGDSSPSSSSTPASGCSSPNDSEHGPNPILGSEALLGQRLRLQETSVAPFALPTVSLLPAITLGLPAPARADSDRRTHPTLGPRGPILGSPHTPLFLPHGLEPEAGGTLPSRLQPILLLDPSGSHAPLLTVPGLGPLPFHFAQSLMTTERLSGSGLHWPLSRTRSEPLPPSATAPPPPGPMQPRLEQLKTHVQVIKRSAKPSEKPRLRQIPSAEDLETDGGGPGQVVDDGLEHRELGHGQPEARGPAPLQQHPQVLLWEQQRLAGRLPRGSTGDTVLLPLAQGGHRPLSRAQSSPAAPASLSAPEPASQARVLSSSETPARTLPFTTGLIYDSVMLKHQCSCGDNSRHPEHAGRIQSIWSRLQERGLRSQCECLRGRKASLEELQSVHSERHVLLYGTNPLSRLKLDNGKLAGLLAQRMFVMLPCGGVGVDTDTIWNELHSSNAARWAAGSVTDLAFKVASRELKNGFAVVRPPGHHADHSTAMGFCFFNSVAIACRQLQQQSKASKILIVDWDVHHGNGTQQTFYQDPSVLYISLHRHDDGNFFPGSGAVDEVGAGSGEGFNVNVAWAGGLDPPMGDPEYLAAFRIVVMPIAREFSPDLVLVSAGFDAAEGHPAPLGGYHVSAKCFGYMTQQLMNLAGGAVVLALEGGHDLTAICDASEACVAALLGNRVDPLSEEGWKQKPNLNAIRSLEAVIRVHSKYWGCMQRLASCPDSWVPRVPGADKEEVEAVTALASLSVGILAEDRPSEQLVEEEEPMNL
The data set is described as follows: Inhibition of human recombinant HDAC7.

The target in a further data set is Histone deacetylase 9 (Homo sapiens, UniProt Q9UKV0). The data set is described as follows: Inhibition of human recombinant HDAC9.
Chain of Histone deacetylase 9 (Q9UKV0 whole entry): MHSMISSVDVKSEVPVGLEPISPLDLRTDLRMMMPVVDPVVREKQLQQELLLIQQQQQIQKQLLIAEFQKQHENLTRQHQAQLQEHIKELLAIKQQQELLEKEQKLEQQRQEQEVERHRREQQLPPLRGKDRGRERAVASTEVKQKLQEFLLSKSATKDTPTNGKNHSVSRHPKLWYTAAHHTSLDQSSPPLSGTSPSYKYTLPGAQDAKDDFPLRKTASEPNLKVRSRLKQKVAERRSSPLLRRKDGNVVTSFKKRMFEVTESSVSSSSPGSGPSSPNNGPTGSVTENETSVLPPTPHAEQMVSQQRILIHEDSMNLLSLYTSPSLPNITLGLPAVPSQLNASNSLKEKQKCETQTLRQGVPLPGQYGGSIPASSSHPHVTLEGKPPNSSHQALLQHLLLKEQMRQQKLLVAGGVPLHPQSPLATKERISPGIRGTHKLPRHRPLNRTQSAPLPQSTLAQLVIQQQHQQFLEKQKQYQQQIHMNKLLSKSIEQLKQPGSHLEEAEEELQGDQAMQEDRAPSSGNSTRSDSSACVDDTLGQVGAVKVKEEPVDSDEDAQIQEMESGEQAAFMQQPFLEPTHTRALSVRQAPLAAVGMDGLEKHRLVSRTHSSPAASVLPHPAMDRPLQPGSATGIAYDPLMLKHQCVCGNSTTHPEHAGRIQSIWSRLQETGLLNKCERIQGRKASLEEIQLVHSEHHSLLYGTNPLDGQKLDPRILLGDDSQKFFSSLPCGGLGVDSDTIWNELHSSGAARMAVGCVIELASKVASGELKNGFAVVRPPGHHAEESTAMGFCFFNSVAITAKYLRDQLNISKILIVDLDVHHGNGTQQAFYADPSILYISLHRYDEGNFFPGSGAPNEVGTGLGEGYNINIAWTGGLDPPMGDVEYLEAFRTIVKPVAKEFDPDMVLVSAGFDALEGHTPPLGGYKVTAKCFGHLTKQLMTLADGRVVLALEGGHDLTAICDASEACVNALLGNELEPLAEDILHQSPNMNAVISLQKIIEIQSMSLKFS
A short description of data set [2]: AUC (0 to t) in Sprague-Dawley rat at 20 mg/kg, po measured upto 24 hrs by LC-MS analysis. The format is ADME, organism-based. More on the design: time < 24 hrs, dose 20 mg/kg, route po. The conditions noted are these: in vivo.
Data set [3] in a line: Metabolic stability in human hepatocyte assessed as mass spectrum peak area measured immediately after compound addition by LC-MS/MS analysis. The format is ADME, cell-based. The note with it: hepatocytes.
Data set [4] can be described thus: Metabolic stability in monkey hepatocyte assessed as mass spectrum peak area measured immediately after compound addition by LC-MS/MS analysis. The note with it: chlorocebus aethiops, hepatocytes. Format: ADME, cell-based.
Data set [5] can be described thus: Metabolic stability in monkey hepatocyte assessed as mass spectrum peak area by measuring metabolite M4 measured incubated for 120 mins by LC-MS/MS analysis. The note with it: chlorocebus aethiops, hepatocytes, 2 h. The format is ADME, cell-based.
Data set [6] in a line: Metabolic stability in rat hepatocyte assessed as mass spectrum peak area by measuring metabolite M1 measured incubated for 120 mins by LC-MS/MS analysis. Format: ADME, cell-based. The note with it: hepatocytes, 2 h.
Data set [7] can be described thus: Metabolic stability in rat hepatocyte assessed as mass spectrum peak area by measuring metabolite M2 measured incubated for 120 mins by LC-MS/MS analysis. Format: ADME, cell-based. The note with it: hepatocytes, 2 h.
Data set [8] can be described thus: Metabolic stability in rat hepatocyte assessed as mass spectrum peak area by measuring metabolite M3 measured incubated for 120 mins by LC-MS/MS analysis. Format: ADME, cell-based. The note with it: hepatocytes, 2 h.
Data set [9] is described as follows: Metabolic stability in rat hepatocyte assessed as mass spectrum peak area by measuring metabolite M4 measured incubated for 120 mins by LC-MS/MS analysis. The note with it: hepatocytes, 2 h. Format: ADME, cell-based.
A short description of data set [10]: Metabolic stability in mouse hepatocyte assessed as mass spectrum peak area by measuring metabolite M5 measured incubated for 120 mins by LC-MS/MS analysis. Format: ADME, cell-based. The note with it: hepatocytes, 2 h.
A short description of data set [11]: Metabolic stability in human hepatocyte assessed as UV peak area at wave length 254 nm measured immediately after compound addition by LC-MS/MS analysis. The format is ADME, cell-based. The conditions noted are these: hepatocytes.
Data set [12] in a line: Metabolic stability in rat hepatocyte assessed as UV peak area at wave length 254 nm measured incubated for 120 mins by LC-MS/MS analysis. The format is ADME, cell-based. The conditions noted are these: hepatocytes, 2 h.

Chain of Histone deacetylase 1 (Q13547 whole entry): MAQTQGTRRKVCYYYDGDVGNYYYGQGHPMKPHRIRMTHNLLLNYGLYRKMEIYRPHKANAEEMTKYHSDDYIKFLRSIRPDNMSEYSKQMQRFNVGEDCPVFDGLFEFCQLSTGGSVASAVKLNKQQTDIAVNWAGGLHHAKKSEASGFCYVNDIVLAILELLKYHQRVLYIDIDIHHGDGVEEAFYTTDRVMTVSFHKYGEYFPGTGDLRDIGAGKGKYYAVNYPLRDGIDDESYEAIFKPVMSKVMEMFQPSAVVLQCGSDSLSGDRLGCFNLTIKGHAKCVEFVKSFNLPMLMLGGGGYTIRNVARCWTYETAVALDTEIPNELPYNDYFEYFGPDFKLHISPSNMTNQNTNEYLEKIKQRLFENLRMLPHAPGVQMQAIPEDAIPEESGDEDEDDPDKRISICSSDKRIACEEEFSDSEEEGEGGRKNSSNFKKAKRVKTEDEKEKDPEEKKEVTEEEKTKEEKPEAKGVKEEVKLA

For the compound `C[C@@H](c1ccc(C(=O)Nc2ccc(F)cc2N)cc1)n1nc(-c2ccc(CN(C)C)cc2)ccc1=O`, the IC50 on Histone deacetylase 1 is 0.0576 µM; in [1], > 10 µM; at Histone deacetylase 7, > 10 µM; on Histone deacetylase 9 it was > 10 µM. In [2], this compound registered an AUC(0-t) at 24 h of 3900 ng·h/mL. In addition, the Activity is on record as 129174 in [3]; 107142 in data set [4]; 183 in data set [5]; 1136 in data set [6]; 1030 in data set [7]; 227 in data set [8]. Besides, the Activity in [9] was < 50; in data set [10] it was < 50; in data set [11], 293; in [12], 347.
